Structures are written as SMILES.

Assay [1] has as its target T1, Retinoic acid receptor beta (Homo sapiens, UniProt P10826).
T1 sequence (P10826 whole entry): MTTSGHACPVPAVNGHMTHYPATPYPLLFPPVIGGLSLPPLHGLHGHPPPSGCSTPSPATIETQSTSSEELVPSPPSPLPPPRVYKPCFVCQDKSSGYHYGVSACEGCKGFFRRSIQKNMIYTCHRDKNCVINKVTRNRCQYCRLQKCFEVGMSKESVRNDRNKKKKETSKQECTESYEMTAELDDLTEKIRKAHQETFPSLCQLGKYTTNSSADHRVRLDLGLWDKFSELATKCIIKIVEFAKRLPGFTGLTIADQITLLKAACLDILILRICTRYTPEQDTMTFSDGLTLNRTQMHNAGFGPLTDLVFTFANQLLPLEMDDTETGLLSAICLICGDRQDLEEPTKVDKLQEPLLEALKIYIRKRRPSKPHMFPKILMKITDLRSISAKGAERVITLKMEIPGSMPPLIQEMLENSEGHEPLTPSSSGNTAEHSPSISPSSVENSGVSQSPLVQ
Put plainly: Compound was tested for functional activity in CV-1 cells transfected with an expression vector for retinoic acid receptor beta using transactivation assay. In kind it is cell-based.

For assay [2], the target named is T2, Retinoic acid receptor alpha (Homo sapiens, UniProt P10276).
T2 sequence (P10276 whole entry): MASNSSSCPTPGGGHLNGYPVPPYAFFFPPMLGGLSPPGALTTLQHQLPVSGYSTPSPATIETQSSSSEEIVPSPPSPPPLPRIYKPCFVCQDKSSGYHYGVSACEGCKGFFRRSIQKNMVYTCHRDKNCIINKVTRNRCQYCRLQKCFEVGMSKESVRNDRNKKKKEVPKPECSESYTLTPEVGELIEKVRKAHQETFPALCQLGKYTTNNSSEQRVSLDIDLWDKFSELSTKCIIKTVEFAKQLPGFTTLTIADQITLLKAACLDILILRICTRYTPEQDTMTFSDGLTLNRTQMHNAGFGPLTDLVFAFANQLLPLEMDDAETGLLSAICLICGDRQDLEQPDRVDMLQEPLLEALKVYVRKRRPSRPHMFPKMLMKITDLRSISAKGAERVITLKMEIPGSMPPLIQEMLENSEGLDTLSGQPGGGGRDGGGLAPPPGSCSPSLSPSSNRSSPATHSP
The assay can be described thus: Compound was tested for functional activity in CV-1 cells transfected with an expression vector for retinoic acid receptor alpha using transactivation assay. In kind it is cell-based.

The target of assay [3] is T3, Retinoic acid receptor RXR-beta (Homo sapiens, UniProt P28702).
T3 sequence (P28702 whole entry): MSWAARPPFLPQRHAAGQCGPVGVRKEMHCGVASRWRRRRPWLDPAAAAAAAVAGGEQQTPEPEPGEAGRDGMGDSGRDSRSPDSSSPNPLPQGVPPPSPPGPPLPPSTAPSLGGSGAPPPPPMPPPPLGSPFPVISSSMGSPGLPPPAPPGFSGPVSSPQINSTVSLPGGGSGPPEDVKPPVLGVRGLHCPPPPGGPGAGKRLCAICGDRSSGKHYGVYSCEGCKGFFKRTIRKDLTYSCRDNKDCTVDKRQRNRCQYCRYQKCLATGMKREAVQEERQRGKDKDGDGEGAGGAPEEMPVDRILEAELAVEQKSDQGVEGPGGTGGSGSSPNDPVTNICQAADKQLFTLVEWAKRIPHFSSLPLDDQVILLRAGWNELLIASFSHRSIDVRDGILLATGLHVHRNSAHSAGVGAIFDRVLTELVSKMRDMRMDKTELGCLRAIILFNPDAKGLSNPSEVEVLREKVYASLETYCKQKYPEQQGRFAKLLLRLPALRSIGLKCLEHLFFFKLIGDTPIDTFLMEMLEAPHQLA
The assay can be described thus: Compound was tested for functional activity in CV-1 cells transfected with an expression vector for retinoid X receptor beta using transactivation assay. In kind it is cell-based.

Assay [4] has as its target T4, Retinoic acid receptor RXR-alpha (Homo sapiens, UniProt P19793).
T4 sequence (P19793 whole entry): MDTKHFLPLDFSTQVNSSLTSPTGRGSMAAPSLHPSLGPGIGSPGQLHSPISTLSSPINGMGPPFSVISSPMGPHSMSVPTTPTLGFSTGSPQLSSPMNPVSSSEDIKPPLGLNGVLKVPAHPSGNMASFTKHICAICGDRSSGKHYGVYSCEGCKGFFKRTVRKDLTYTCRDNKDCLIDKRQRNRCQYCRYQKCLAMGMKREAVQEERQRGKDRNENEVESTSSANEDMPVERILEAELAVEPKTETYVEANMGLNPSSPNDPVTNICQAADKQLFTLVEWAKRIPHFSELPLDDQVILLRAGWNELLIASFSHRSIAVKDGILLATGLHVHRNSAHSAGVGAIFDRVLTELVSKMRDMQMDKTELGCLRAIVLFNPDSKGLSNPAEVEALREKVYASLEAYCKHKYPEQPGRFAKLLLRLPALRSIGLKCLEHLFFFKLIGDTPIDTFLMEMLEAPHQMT
Put plainly: Compound was tested for functional activity in CV-1 cells transfected with an expression vector for retinoid X receptor alpha using transactivation assay. Format: cell-based.

Assay [5] addresses T4, Retinoic acid receptor RXR-alpha. Put plainly: Compound was tested for binding affinity against retinoid X receptor using 5 nM of [3H]-9-cis-RA as a radioligand in baculovirus expressed receptor.
The target of assay [6] is T5, Retinoic acid receptor gamma (Homo sapiens, UniProt P13631).
T5 sequence (P13631 whole entry): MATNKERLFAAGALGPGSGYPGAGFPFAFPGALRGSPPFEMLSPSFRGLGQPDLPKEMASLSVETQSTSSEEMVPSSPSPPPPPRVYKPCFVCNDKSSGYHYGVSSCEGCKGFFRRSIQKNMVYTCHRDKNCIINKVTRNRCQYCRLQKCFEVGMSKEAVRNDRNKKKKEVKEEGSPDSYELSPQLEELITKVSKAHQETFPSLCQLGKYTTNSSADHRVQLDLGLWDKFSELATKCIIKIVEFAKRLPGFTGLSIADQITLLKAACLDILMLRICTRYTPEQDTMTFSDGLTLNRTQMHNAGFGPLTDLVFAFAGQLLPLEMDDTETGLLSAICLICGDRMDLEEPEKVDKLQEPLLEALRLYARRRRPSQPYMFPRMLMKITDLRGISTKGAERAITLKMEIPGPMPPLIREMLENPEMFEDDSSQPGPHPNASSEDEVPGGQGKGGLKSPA
The assay can be described thus: Compound was tested for functional activity in CV-1 cells transfected with an expression vector for retinoic acid receptor gamma using transactivation assay. Format: cell-based.

For assay [7], the target named is T1, Retinoic acid receptor beta. The assay can be described thus: (§1) Compound was tested for binding affinity against retinoic acid receptor using 5 nM of [3H]RA as a radioligand in baculovirus expressed receptor.
The target in assay [8] is T5, Retinoic acid receptor gamma. The assay is described as §1.
The target in assay [9] is T2, Retinoic acid receptor alpha. Described as §1.
For assay [10], the target named is T3, Retinoic acid receptor RXR-beta. Put plainly: (§2) Compound was tested for binding affinity against retinoid X receptor using 5 nM of [3H]9-cis-RA as a radioligand in baculovirus expressed receptor.
Assay [11] has as its target T6, Retinoic acid receptor RXR-gamma (Homo sapiens, UniProt P48443).
T6 sequence (P48443 whole entry): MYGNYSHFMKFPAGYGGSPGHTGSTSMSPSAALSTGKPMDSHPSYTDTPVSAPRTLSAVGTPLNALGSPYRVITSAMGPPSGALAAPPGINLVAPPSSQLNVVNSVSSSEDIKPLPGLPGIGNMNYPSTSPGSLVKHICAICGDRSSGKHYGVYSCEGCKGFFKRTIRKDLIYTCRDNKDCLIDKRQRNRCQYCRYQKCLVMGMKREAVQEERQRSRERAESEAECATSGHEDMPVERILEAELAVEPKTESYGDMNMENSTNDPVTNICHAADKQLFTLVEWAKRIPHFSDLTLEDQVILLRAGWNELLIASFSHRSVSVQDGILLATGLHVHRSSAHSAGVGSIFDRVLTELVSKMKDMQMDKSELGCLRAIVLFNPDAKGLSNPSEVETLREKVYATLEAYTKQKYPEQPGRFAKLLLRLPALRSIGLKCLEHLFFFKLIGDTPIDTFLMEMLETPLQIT
The assay is described as §2.

Assay [12] concerns the target T6, Retinoic acid receptor RXR-gamma. Put plainly: Compound was tested for functional activity in CV-1 cells transfected with an expression vector for retinoid X receptor gamma using transactivation assay. Format: cell-based.

What is called EC50 is the concentration at which the effect is half-maximal. Read a high EC50 as lower potency in that assay. As a reminder, the Kd is the constant that tells how readily two partners part at equilibrium. Higher therefore signals a looser complex. For the compound `CC(=CC(=O)O)/C=C/C1CC1(C)c1cc2c(cc1C)C(C)(C)CCC2(C)C` (centres undefined), the EC50 in assay [1], in [2], in assay [3], in assay [4], in assay [6] and in assay [12] was above 1000 nM throughout. The Kd in assay [5], in assay [7], in assay [8], in [9], in assay [10] and in assay [11] was above 1000 nM throughout.
Regarding `CC(/C=C/C1CC1(C)c1cc2c(cc1C)C(C)(C)CCC2(C)C)=C\C(=O)O` (centres undefined), the EC50 is above 1000 nM in assay [1]; above 1000 nM in assay [2]; 100 nM in assay [3]; 130 nM in [4]; above 1000 nM in assay [6]; 71 nM in assay [12]. In addition, the dissociation constant Kd in [5] was 71 nM; in assay [7] it was above 1000 nM; in assay [8] it was above 1000 nM; in assay [9] it was above 1000 nM; in assay [10] it was 56 nM; in assay [11], 42 nM.

These data come from ChEMBL document CHEMBL1129189 (Bioorg Med Chem Lett, 1996).
